In patent US4572908A, “Dihydropyridines” (Pfizer Inc., priority 1982, dated 1986):

System: rat aorta
Assay: inhibition of calcium-induced contraction (change in tension) of spirally cut strips of rat aorta in K+ 45 mM saline
Type: cell-based
Settings: 0.75 h, 45 millimolar potassium, 2 millimolar calcium, 45 minutes, read-out: IC50 (molar concentration required to reduce the response by 50%)
Method: The ability of the compounds to inhibit the movement of calcium into the cell is shown by their effectiveness in reducing the response of isolated heart tissue to an increase in calcium ion concentration in vitro. The test is performed by mounting spirally cut strips of rat aorta with one end fixed and the other attached to a force transducer. The tissue is immersed in a bath of physiological saline solution containing potassium ions at a concentration of 45 millimolar and no calcium. Calcium chloride is added to the bath with a pipette to give a final calcium ion concentration of 2 millimolar. The change in tension caused by the resulting contraction of the tissue is noted. The bath is drained and replaced with fresh saline solution and, after 45 minutes, the test is repeated with the particular compound under test present in the saline solution. The concentration of compound required to reduce the response by 50% (IC50) is recorded.
The molar concentrations of the compounds required to reduce the response by 50% in the test specified on pages 16-17 are given below (1M=1 gm.Mole/liter).

SMILES | IC50
CCOC(=O)C1=C(COCCNc2n[s+]([O-])nc2OC)NC(C)=C(C(=O)OC)C1c1cccc(Cl)c1Cl (stereo not drawn) [Example 64, 3-{2-[(4-{2,3-Dichlorophenyl}-3-ethoxycarbonyl-5-methoxycarbonyl-6-methyl-1,4-dihydropyrid-2-yl)methoxy]ethylamino}-4-methoxy-1,2,5-thiadiazole-1-oxid] | 10 nM
CCOC(=O)C1=C(COCCNc2n[s+]([O-])nc2OC)NC(C)=C(C(=O)OC)C1c1ccccc1Cl (stereo not drawn) [Example 65] | 25.1 nM
CCOC(=O)C1=C(COCCNc2n[s+]([O-])nc2OC)NC(C)=C(C(=O)OC)C1c1cccc(C(F)(F)F)c1Cl (stereo not drawn) [Example 66] | 2.24 nM
CCOC(=O)C1=C(COCCNc2n[s+]([O-])nc2N)NC(C)=C(C(=O)OC)C1c1cccc(Cl)c1Cl (stereo not drawn) [Example 67, 3-{2-[(4-{2,3-Dichlorophenyl}-3-ethoxycarbonyl-5-methoxycarbonyl-6-methyl-1,4-dihydropyrid-2-yl)methoxy]ethylamino}-4-amino-1,2,5-thiadiazole-1-oxide hemihydrate] | 19.9 nM
CCOC(=O)C1=C(COCCNc2n[s+]([O-])nc2N)NC(C)=C(C(=O)OC)C1c1ccccc1Cl (stereo not drawn) [Example 68] | 13.1 nM
CCOC(=O)C1=C(COCCNC2=NCCS2)NC(C)=C(C(=O)OC)C1c1ccccc1Cl (stereo not drawn) [Example 70, 4-(2-Chlorophenyl)-3-ethoxycarbonyl-5-methoxycarbonyl-6-methyl-2-[2-(2-thiazolin-2-ylamino)ethoxymethyl]-1,4-dihydropyridine] | 9.33 nM
CCOC(=O)C1=C(COCCNc2nccs2)NC(C)=C(C(=O)OC)C1c1ccccc1Cl (stereo not drawn) [Example 71, 4-(2-Chlorophenyl)-3-ethoxycarbonyl-5-methoxycarbonyl-6-methyl-2-[2-(thiazol-2-ylamino)ethoxymethyl]-1,4-dihydropyridine] | 10 nM
CCOC(=O)C1=C(COCCNc2nc(C)cs2)NC(C)=C(C(=O)OC)C1c1ccccc1Cl (stereo not drawn) [Example 72] | 39.8 nM
CCOC(=O)C1=C(COCCNc2nc(C(=O)OCC)cs2)NC(C)=C(C(=O)OC)C1c1ccccc1Cl (stereo not drawn) [Example 73] | 4.4 nM
CCOC(=O)C1=C(COCCNC2=NC(=O)CS2)NC(C)=C(C(=O)OC)C1c1ccccc1Cl (stereo not drawn) [Example 74] | 20 nM
CCOC(=O)C1=C(COCCNC2=NC(=O)CS2)NC(C)=C(C(=O)OC)C1c1cccc(C(F)(F)F)c1Cl (stereo not drawn) [Example 75] | 7.08 nM
CCOC(=O)C1=C(COCCNc2nc(C(=O)NC)cs2)NC(C)=C(C(=O)OC)C1c1ccccc1Cl (stereo not drawn) [Example 77, 4-(2-Chlorophenyl)-3-ethoxycarbonyl-5-methoxycarbonyl-6-methyl-2-[2-(4-[N-methylcarbamoyl]-thiazol-2-ylamino)ethoxymethyl]-1,4-dihydropyridine] | 5.37 nM
CCOC(=O)C1=C(COCCNc2noc(=O)[nH]2)NC(C)=C(C(=O)OC)C1c1cccc(Cl)c1Cl (stereo not drawn) [Example 78, 2-[2-(4,5-Dihydro-5-oxo-1,2,4-oxadiazol-3-ylamino)ethoxymethyl]-4-(2,3-dichlorophenyl)-3-ethoxycarbonyl-5-methoxycarbonyl-6-methyl-1,4-dihydropyridinemonohydrate] | 2.29 nM
CCOC(=O)C1=C(COCCNc2nc(NC(=O)NC)n(C)n2)NC(C)=C(C(=O)OC)C1c1ccccc1Cl (stereo not drawn) [Example 79, hydrate] | 6.6 nM
CCOC(=O)C1=C(COCCNc2cc(N3CCOCC3)ncn2)NC(C)=C(C(=O)OC)C1c1cccc(Cl)c1Cl (stereo not drawn) [Example 80, 4-(2,3-Dichlorophenyl)-3-ethoxycarbonyl-5-methoxycarbonyl-6-methyl-[2-(6-morpholinopyrimidin-4-ylamino)ethoxymethyl]-1,4-dihydropyridine] | 1.34 nM
CCOC(=O)C1=C(COCCNc2cc(N3CCN(C)CC3)ncn2)NC(C)=C(C(=O)OC)C1c1cccc(Cl)c1Cl (stereo not drawn) [Example 81] | 3.16 nM
CCOC(=O)C1=C(COCCNc2cc(N3CCCCC3)ncn2)NC(C)=C(C(=O)OC)C1c1cccc(Cl)c1Cl (stereo not drawn) [Example 82] | 4.07 nM
CCOC(=O)C1=C(COCCNc2cc(NC)ncn2)NC(C)=C(C(=O)OC)C1c1cccc(Cl)c1Cl (stereo not drawn) [Example 83] | 3.16 nM
CCOC(=O)C1=C(COCCNc2nccnc2NC)NC(C)=C(C(=O)OC)C1c1cccc(Cl)c1Cl (stereo not drawn) [Example 84] | 5.01 nM
CCOC(=O)C1=C(COCCNc2cc(N3CCCCC3)ncn2)NC(C)=C(C(=O)OC)C1c1ccccc1Cl (stereo not drawn) [Example 85] | 5.01 nM
CCOC(=O)C1=C(COCCNc2cc(N3CCOCC3)ncn2)NC(C)=C(C(=O)OC)C1c1ccccc1Cl (stereo not drawn) [Example 86] | 1.58 nM
CCOC(=O)C1=C(COCCNc2nccnc2N2CCOCC2)NC(C)=C(C(=O)OC)C1c1ccccc1Cl (stereo not drawn) [Example 87] | 100 nM
CCOC(=O)C1=C(COCCNc2cc(N3CCOCC3)ncn2)NC(C)=C(C(=O)OC)C1c1cccc(C(F)(F)F)c1Cl (stereo not drawn) [Example 88, 4-(2-Chloro-3-trifluoromethylphenyl)-3-ethoxycarbonyl-5-methoxycarbonyl-6-methyl-[2-(6-morpholino-pyrimidin-4-ylamino)ethoxymethyl]-1,4-dihydropyridin] | 0.126 nM
CCOC(=O)C1=C(COCCNc2cnccn2)NC(C)=C(C(=O)OC)C1c1cccc(Cl)c1Cl (stereo not drawn) [Example 89, 4-(2,3-Dichlorophenyl)-3-ethoxycarbonyl-5-methoxycarbonyl-6-methyl-2-[2-(pyrazin-2-ylamino)ethoxymethyl]-1,4-dihydropyridine] | 0.501 nM
CCOC(=O)C1=C(COCCNc2n[nH]c(O)n2)NC(C)=C(C(=O)OC)C1c1cccc(Cl)c1Cl (stereo not drawn) [Example 90B, 4-(2,3-Dichlorophenyl)-3-ethoxycarbonyl-2-[2-(5-hydroxy-1H-1,2,4-triazol-3-ylamino)ethoxymethyl]-5-methoxycarbonyl-6-methyl-1,4-dihydropyridine hydrate] | 10 nM
CCOC(=O)C1=C(COCCNc2ncc(O)c(C)n2)NC(C)=C(C(=O)OC)C1c1cccc(Cl)c1Cl (stereo not drawn) [Example 91A, 4-(2,3-dichlorophenyl)-3-ethoxycarbonyl-2-[2-(5-hydroxy-4-methylpyrimidin-2-ylamino)ethoxymethyl]-5-methoxycarbonyl-6-methyl-1,4-dihydropyridine] | 1 nM
CCOC(=O)C1=C(COCCNc2nc(C(C)=O)c[nH]2)NC(C)=C(C(=O)OC)C1c1cccc(Cl)c1Cl (stereo not drawn) [Example 91B, 2-[2-(4-acetylimidazol-2-ylamino)ethoxymethyl]-4-(2,3-dichlorophenyl)-3-ethoxycarbonyl-5-methoxycarbonyl-6-methyl-1,4-dihydropyridine] | 2.5 nM
